Test results reported in patent US20240050428A1 (Cullgen (Shanghai), Inc., priority 2020, published 2024).
Where two headings read alike, the source gives them in different places.

Legend:
MV4;11 cells = assay: Cell viability assay (CellTiter-Glo) in MV4;11 cells, alone or with gilteritinib; assay type: cell-based; settings: Homo sapiens, MV4-11, 72 h, MV4;11 cells, three days, CellTiter-Glo, read-out: MV4
MOLM-13 cells = assay: Cell viability assay (CellTiter-Glo) in MOLM-13 cells, alone or with gilteritinib; assay type: cell-based; settings: Homo sapiens, MOLM-13, 72 h, MOLM-13 cells, three days, CellTiter-Glo
[1] = compound alone (without gilteritinib), 11 IC50
[2] = with gilteritinib 10 nM, 11 IC50 gilteritinib
[3] = compound alone (without gilteritinib), read-out: MOLM-13 IC50
[4] = with gilteritinib 20 nM, read-out: MOLM-13 IC50 gilteritinib

O=C1CCC(N2Cc3ccc(CCCCC(=O)N4CCC(n5cc(-c6ccc7ccccc7n6)cn5)CC4)cc3C2=O)C(=O)N1 (centres unmarked) [GS-160, 3-(1-Oxo-6-(5-oxo-5-(4-(4-(quinolin-2-yl)-1H-pyrazol-1-yl)piperidin-1-yl)pentyl)isoindolin-2-yl)piperidine-2,6-dione]
IC50 (MV4;11 cells; [1]): 100 to 1000 nM
IC50 (MV4;11 cells; [2]): 10 to 100 nM
IC50 (MOLM-13 cells; [3]): > 1000 nM
IC50 (MOLM-13 cells; [4]): 10 to 100 nM

O=C1CCC(N2Cc3ccc(CCCCC(=O)N4CCC(n5cc(-c6cnc7ccccc7n6)cn5)CC4)cc3C2=O)C(=O)N1 (centres unmarked) [GS-161, 3-(1-Oxo-6-(5-oxo-5-(4-(4-(quinoxalin-2-yl)-1H-pyrazol-1-yl)piperidin-1-yl)pentyl)isoindolin-2-yl)piperidine-2,6-dione]
IC50 (MV4;11 cells; [1]): 100 to 1000 nM
IC50 (MV4;11 cells; [2]): 10 to 100 nM
IC50 (MOLM-13 cells; [3]): > 1000 nM
IC50 (MOLM-13 cells; [4]): 10 to 100 nM

O=C1CCC(N2Cc3cc(NCc4cccc(N5CCC(n6cc(-c7cnc8ccccc8n7)cn6)CC5)c4)ccc3C2=O)C(=O)N1 (centres unmarked) [GS-162, 3-(1-Oxo-5-((3-(4-(4-(quinoxalin-2-yl)-1H-pyrazol-1-yl)piperidin-1-yl)benzyl)amino)isoindolin-2-yl)piperidine-2,6-dione]
IC50 (MV4;11 cells; [1]): > 1000 nM
IC50 (MV4;11 cells; [2]): > 1000 nM
IC50 (MOLM-13 cells; [3]): > 1000 nM
IC50 (MOLM-13 cells; [4]): 10 to 100 nM

N#Cc1ccc2ncc(-c3cnn(CCCCCCNc4ccc5c(c4)C(=O)N(C4CCC(=O)NC4=O)C5=O)c3)nc2c1 (centres unmarked) [GS-163, 3-(1-(6-((2-(2,6-Dioxopiperidin-3-yl)-1,3-dioxoisoindolin-5-yl)amino)hexyl)-1H-pyrazol-4-yl)quinoxaline-6-carbonitrile]
IC50 (MV4;11 cells; [1]): 100 to 1000 nM
IC50 (MV4;11 cells; [2]): 10 to 100 nM
IC50 (MOLM-13 cells; [3]): 100 to 1000 nM
IC50 (MOLM-13 cells; [4]): < 10 nM

O=C1CCC(N2C(=O)c3ccc(NCCCC4CC(n5cc(-c6cnc7cccc(F)c7n6)cn5)C4)cc3C2=O)C(=O)N1 (centres unmarked) [GS-164, 2-(2,6-Dioxopiperidin-3-yl)-5-((3-(3-(4-(8-fluoroquinoxalin-2-yl)-1H-pyrazol-1-yl)cyclobutyl)propyl)amino)isoindoline-1,3-dione]
IC50 (MV4;11 cells; [1]): 100 to 1000 nM
IC50 (MV4;11 cells; [2]): 10 to 100 nM
IC50 (MOLM-13 cells; [3]): 100 to 1000 nM
IC50 (MOLM-13 cells; [4]): 10 to 100 nM

N#Cc1cccc2ncc(-c3cnn(CCCCCCNc4ccc5c(c4)C(=O)N(C4CCC(=O)NC4=O)C5=O)c3)nc12 (centres unmarked) [GS-165, 3-(1-(6-((2-(2,6-Dioxopiperidin-3-yl)-1,3-dioxoisoindolin-5-yl)amino)hexyl)-1H-pyrazol-4-yl)quinoxaline-5-carbonitrile]
IC50 (MV4;11 cells; [1]): 100 to 1000 nM
IC50 (MV4;11 cells; [2]): 10 to 100 nM
IC50 (MOLM-13 cells; [3]): 100 to 1000 nM
IC50 (MOLM-13 cells; [4]): 10 to 100 nM

Cc1nn(CCCCCCNc2ccc3c(c2)C(=O)N(C2CCC(=O)NC2=O)C3=O)c(C)c1-c1cnc2cccc(C#N)c2n1 (centres unmarked) [GS-166, 3-(1-(6-((2-(2,6-Dioxopiperidin-3-yl)-1,3-dioxoisoindolin-5-yl)amino)hexyl)-3,5-dimethyl-1H-pyrazol-4-yl)quinoxaline-5-carbonitrile]
IC50 (MV4;11 cells; [1]): 10 to 100 nM
IC50 (MV4;11 cells; [2]): < 10 nM
IC50 (MOLM-13 cells; [3]): 10 to 100 nM
IC50 (MOLM-13 cells; [4]): < 10 nM

Cc1nn(C2CC(CCCNc3ccc4c(c3)C(=O)N(C3CCC(=O)NC3=O)C4=O)C2)c(C)c1-c1cnc2ccccc2n1 (centres unmarked) [GS-167, 5-((3-(3-(3,5-Dimethyl-4-(quinoxalin-2-yl)-1H-pyrazol-1-yl)cyclobutyl)propyl)amino)-2-(2,6-dioxopiperidin-3-yl)isoindoline-1,3-dione]
IC50 (MV4;11 cells; [1]): > 1000 nM
IC50 (MV4;11 cells; [2]): 100 to 1000 nM
IC50 (MOLM-13 cells; [3]): > 1000 nM
IC50 (MOLM-13 cells; [4]): < 10 nM

Cc1nn([C@H]2C[C@@H](CCCNc3ccc4c(c3)C(=O)N(C3CCC(=O)NC3=O)C4=O)C2)cc1-c1cnc2ccccc2n1 (stereo partly drawn) [GS-168, 2-(2,6-Dioxopiperidin-3-yl)-5-((3-(cis-3-(3-methyl-4-(quinoxalin-2-yl)-1H-pyrazol-1-yl)cyclobutyl)propyl)amino)isoindoline-1,3-dione]
IC50 (MV4;11 cells; [1]): 100 to 1000 nM
IC50 (MV4;11 cells; [2]): 10 to 100 nM
IC50 (MOLM-13 cells; [3]): > 1000 nM
IC50 (MOLM-13 cells; [4]): 10 to 100 nM

Cc1c(-c2cnc3ccccc3n2)cnn1[C@H]1C[C@@H](CCCNc2ccc3c(c2)C(=O)N(C2CCC(=O)NC2=O)C3=O)C1 (stereo partly drawn) [GS-169, 2-(2,6-Dioxopiperidin-3-yl)-5-((3-(cis-3-(5-methyl-4-(quinoxalin-2-yl)-1H-pyrazol-1-yl)cyclobutyl)propyl)amino)isoindoline-1,3-dione]
IC50 (MV4;11 cells; [1]): 100 to 1000 nM
IC50 (MV4;11 cells; [2]): > 1000 nM
IC50 (MOLM-13 cells; [3]): > 1000 nM
IC50 (MOLM-13 cells; [4]): 10 to 100 nM

Cc1c(-c2cnc3ccccc3n2)cnn1[C@H]1C[C@H](CCCNc2ccc3c(c2)C(=O)N(C2CCC(=O)NC2=O)C3=O)C1 (stereo partly drawn) [GS-170, 2-(2,6-Dioxopiperidin-3-yl)-5-((3-(trans-3-(5-methyl-4-(quinoxalin-2-yl)-1H-pyrazol-1-yl)cyclobutyl)propyl)amino)isoindoline-1,3-dione]
IC50 (MV4;11 cells; [1]): > 1000 nM
IC50 (MV4;11 cells; [2]): 10 to 100 nM
IC50 (MOLM-13 cells; [3]): > 1000 nM
IC50 (MOLM-13 cells; [4]): 10 to 100 nM

Cc1nn([C@H]2C[C@H](CCCNc3ccc4c(c3)C(=O)N(C3CCC(=O)NC3=O)C4=O)C2)cc1-c1cnc2ccccc2n1 (stereo partly drawn) [GS-171, 2-(2,6-Dioxopiperidin-3-yl)-5-((3-(trans-3-(3-methyl-4-(quinoxalin-2-yl)-1H-pyrazol-1-yl)cyclobutyl)propyl)amino)isoindoline-1,3-dione]
IC50 (MV4;11 cells; [1]): 10 to 100 nM
IC50 (MV4;11 cells; [2]): < 10 nM
IC50 (MOLM-13 cells; [3]): 10 to 100 nM
IC50 (MOLM-13 cells; [4]): < 10 nM

CN1CCN(c2ccc3ncc(-c4cnn(C5CC(CCCNc6ccc7c(c6)C(=O)N(C6CCC(=O)NC6=O)C7=O)C5)c4)nc3c2)CC1 (centres unmarked) [GS-172, 2-(2,6-Dioxopiperidin-3-yl)-5-((3-(3-(4-(7-(4-methylpiperazin-1-yl)quinoxalin-2-yl)-1H-pyrazol-1-yl)cyclobutyl)propyl)amino)isoindoline-1,3-dione]
IC50 (MV4;11 cells; [1]): 100 to 1000 nM
IC50 (MV4;11 cells; [2]): > 1000 nM
IC50 (MOLM-13 cells; [3]): > 1000 nM
IC50 (MOLM-13 cells; [4]): 100 to 1000 nM

O=C1CCC(N2C(=O)c3ccc(NCCCC4CC(n5cc(-c6cnc7ccc(N8CCOCC8)cc7n6)cn5)C4)cc3C2=O)C(=O)N1 (centres unmarked) [GS-173, 2-(2,6-Dioxopiperidin-3-yl)-5-((3-(3-(4-(7-morpholinoquinoxalin-2-yl)-1H-pyrazol-1-yl)cyclobutyl)propyl)amino)isoindoline-1,3-dione]
IC50 (MV4;11 cells; [1]): 10 to 100 nM
IC50 (MV4;11 cells; [2]): 10 to 100 nM
IC50 (MOLM-13 cells; [3]): 10 to 100 nM
IC50 (MOLM-13 cells; [4]): < 10 nM

O=C1CCC(N2C(=O)c3ccc(NCCCC4CC(n5cc(-c6cnc7ccc(N8CCNCC8)cc7n6)cn5)C4)cc3C2=O)C(=O)N1 (centres unmarked) [GS-174, 2-(2,6-Dioxopiperidin-3-yl)-5-((3-(3-(4-(7-(piperazin-1-yl)quinoxalin-2-yl)-1H-pyrazol-1-yl)cyclobutyl)propyl)amino)isoindoline-1,3-dione]
IC50 (MV4;11 cells; [1]): 100 to 1000 nM
IC50 (MV4;11 cells; [2]): 10 to 100 nM
IC50 (MOLM-13 cells; [3]): > 1000 nM
IC50 (MOLM-13 cells; [4]): < 10 nM

N#Cc1ccc2ncc(-c3cnn(C4CC(CCCNc5ccc6c(c5)C(=O)N(C5CCC(=O)NC5=O)C6=O)C4)c3)nc2c1 (centres unmarked) [GS-175, 3-(1-(3-(3-((2-(2,6-Dioxopiperidin-3-yl)-1,3-dioxoisoindolin-5-yl)amino)propyl)cyclobutyl)-1H-pyrazol-4-yl)quinoxaline-6-carbonitrile]
IC50 (MV4;11 cells; [1]): 100 to 1000 nM
IC50 (MV4;11 cells; [2]): 10 to 100 nM
IC50 (MOLM-13 cells; [3]): 100 to 1000 nM
IC50 (MOLM-13 cells; [4]): < 10 nM

O=C1CCC(N2C(=O)c3ccc(NCCC[C@H]4C[C@H](n5cc(-c6cnc7ccccc7n6)cn5)C4)cc3C2=O)C(=O)N1 (stereo partly drawn) [GS-176, 2-(2,6-Dioxopiperidin-3-yl)-5-((3-(trans-3-(4-(quinoxalin-2-yl)-1H-pyrazol-1-yl)cyclobutyl)propyl)amino)isoindoline-1,3-dione]
IC50 (MV4;11 cells; [1]): 100 to 1000 nM
IC50 (MV4;11 cells; [2]): 10 to 100 nM
IC50 (MOLM-13 cells; [3]): 100 to 1000 nM
IC50 (MOLM-13 cells; [4]): 10 to 100 nM
